Data taken from PMC3236808 (2011).

Molecular target: PRMT1 (Rattus norvegicus, UniProt Q63009)
Assay: scintillation proximity assay of 3H-SAM methylation of biotinylated H4 peptide
Assay type: biochemical

Sequence of PRMT1 (Q63009 whole entry): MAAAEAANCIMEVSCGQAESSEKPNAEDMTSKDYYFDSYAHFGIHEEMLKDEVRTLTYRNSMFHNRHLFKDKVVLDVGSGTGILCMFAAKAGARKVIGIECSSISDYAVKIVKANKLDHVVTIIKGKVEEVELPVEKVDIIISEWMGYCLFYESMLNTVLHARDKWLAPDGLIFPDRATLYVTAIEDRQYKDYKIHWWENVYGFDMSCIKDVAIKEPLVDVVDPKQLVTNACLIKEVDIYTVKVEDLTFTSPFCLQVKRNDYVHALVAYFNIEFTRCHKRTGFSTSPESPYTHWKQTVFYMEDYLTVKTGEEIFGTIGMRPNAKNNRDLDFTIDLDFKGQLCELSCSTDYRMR

Work on `Nc1ncnc2c1ncn2[C@@H]1O[C@H](CSCC[C@H](N)C(=O)O)[C@@H](O)[C@H]1O` [SAH, S-adenosyl-L-homocysteine] yielded an IC50 of 300 nM.
